Measurements taken from US11845752B2, “Substituted imidazo[1,5-a]pyrazines for the treatment of hepatitis B” (ALIGOS THERAPEUTICS, INC., priority 2020, dated 2023).
Read-outs that look alike come from different tables or passages of the source.

System: HBV
Test: HBV-DNA antiviral assay using HepG2.117 cells (intracellular HBV DNA by qPCR)
Assay type: cell-based, HBV genotype D
Settings: HBV DNA inhibition, 3 days incubation
Experimental: The following assay procedure describes the HBV antiviral assay, using HepG2.117 cells, which carry a stably integrated genotype D HBV genome under the control of a Tet-off promoter, and intracellular HBV DNA quantification as endpoint. Cell viability is assessed in parallel by measuring the intracellular ATP content using ATPlite (Perkin Elmer).
On day 0, HepG2.117 cells (which are maintained in routine cell culture with doxycycline present in the medium at a final concentration of 1 μg/mL) were seeded in 96-well plates (white with clear bottom) at a density of 2.0×10^4 cells/well (0.1 mL/well) in medium without doxycycline to induce pgRNA transcription and subsequent formation of HBV particles. The cells were incubated at 37° C. and 5% CO2.
On day 1, medium was removed from each well, the test articles were diluted in culture medium without doxcycyline and 100 μL was added to cell culture wells (9 concentrations, 4-fold dilution). For each plate, 6 untreated (merely DMSO) wells were included. The final concentration of DMSO in the culture medium was 2%. Each plate was prepared in duplicate (one for HBV DNA extraction, one for ATPlite measurement). The cells were incubated at 37° C. and 5% CO2 for 3 days.
On day 4, cell viability was assessed using ATPlite and cell lysates were prepared for HBV DNA extraction and subsequent quantification by qPCR.
Medium was removed from each well and 100 μL of 0.33% NP-40 in H2O was added to each well. Plates were sealed, incubated at 4° C. for 5 mins, vortexed extensively and centrifuged briefly. Next, 35 μL of lysate was added to 65 μL QuickExtract DNA Extraction Solution (Epicentre) in a PCR plate for each well. PCR plate was incubated at 65° C. for 6 mins, 98° C. for 2 mins and finally cooled to 4° C. HBV DNA was then quantified by qPCR with HBV-specific primers and probes as specified in Table 1 using the Bio-Rad SSOAdvanced Universal Probes Supermix on a CFX96 machine (Bio-Rad). The PCR cycle program consisted of 95° C. for 3 mins, followed by 40 cycles at 95° C. for 10 sec and 60° C. for 30 sec.
A DNA standard was prepared by dilution of an IDT gBlock corresponding to the amplicon with concentrations ranging from 10^2 to 10^8 copies/input (i.e. per 4 μL) and used to generate a standard curve by plotting Cq values vs. HBV DNA standard concentration. The quantity of HBV DNA in each sample was determined by interpolating from the standard curve.
Cell viability was calculated as follows: % Cell viability=(luminescence value of test sample)/(average luminescence value of 2% DMSO control)×100%. HBV DNA inhibition was calculated as follows: 100−(HBV DNA copy number of test sample)/(average HBV DNA copy number of 2% DMSO control)×100%. No normalization to entecavir was required due to the excellent dynamic window of this assay. The CC50, EC50 and EC90 values were determined by dose-response curves fitted using non-linear regression.

[1] = Hepatitis B virus, HepG2.117, 72 h, read-out: EC50

Row | SMILES | EC50 [1] | also measured
1 | CNc1ccnc(-c2ccccc2CNC(=O)c2c3n(c(=O)n2-c2ccc(OC4CC4)cc2)CC(C)N(C(=O)c2ccc(Br)c(C(F)(F)F)c2)C3)n1 (racemic) [Compound 28a, rac-(6R)-7-[4-bromo-3-(trifluoromethyl)benzoyl]-2-[4-(cyclopropoxy)phenyl]-6-methyl-N-[[2-[4-(methylamino)pyrimidin-2-yl]phenyl]methyl]-3-oxo-6,8-dihydro-5H-imidazo[1,5-a]pyrazine-1-carboxamide] | < 50 nM | 
2 | C[C@@H]1Cn2c(c(C(=O)NCc3c(F)cccc3-c3ccccn3)n(-c3ccc(OC4CC4)cc3)c2=O)CN1C(=O)c1ccc(Br)c(C(F)(F)F)c1 (racemic) [Compound 41a, rac-(6R)-7-[4-bromo-3-(trifluoromethyl)benzoyl]-2-[4-(cyclopropoxy)phenyl]-N-[[2-fluoro-6-(2-pyridyl)phenyl]methyl]-6-methyl-3-oxo-6,8-dihydro-5H-imidazo[1,5-a]pyrazine-1-carboxamide] | < 50 nM | 
3 | C[C@H]1Cn2c(c(C(=O)NCc3ccccc3-c3ccncn3)n(-c3ccc(OC[C@H](O)C(F)(F)F)cc3)c2=O)CN1C(=O)c1ccc(Br)c(C(F)(F)F)c1 (racemic) [Compound 63b, (6SR)-7-[4-bromo-3-(trifluoromethyl)benzoyl]-6-methyl-3-oxo-N-[(2-pyrimidin-4-ylphenyl)methyl]-2-[4-[(25)-3,3,3-trifluoro-2-hydroxy-propoxy]phenyl]-6,8-dihydro-5H-imidazo[1,5-a]pyrazine-1-carboxamide] | 50 to 500 nM | 
4 | C[C@H](O)COc1ccc(-n2c(C(=O)NCc3ccccc3-c3ncccn3)c3n(c2=O)C[C@H](C)N(C(=O)c2ccc(Br)c(C(F)(F)F)c2)C3)cc1 (racemic) [Compound 65b, (6SR)-7-[4-bromo-3-(trifluoromethyl)benzoyl]-2-[4-[(25)-2-hydroxypropoxy]phenyl]-6-methyl-3-oxo-N-[(2-pyrimidin-2-ylphenyl)methyl]-6,8-dihydro-5H-imidazo[1,5-a]pyrazine-1-carboxamide] | 50 to 500 nM | 
5 | C[C@@H]1Cn2c(c(C(=O)NCc3ccccc3-c3ccncn3)n(-c3ccc(OCC4(O)CC4)cc3)c2=O)CN1C(=O)c1ccc(Br)c(C(F)(F)F)c1 (racemic) [Compound 74a, rac-(6R)-7-[4-bromo-3-(trifluoromethyl)benzoyl]-2-[4-[(1-hydroxycyclopropyl)methoxy]phenyl]-6-methyl-3-oxo-N-[(2-pyrimidin-4-ylphenyl)methyl]-6,8-dihydro-SH-imidazo[1,5-a]pyrazine-1-carboxamide] | 50 to 500 nM | 
6 | C[C@H]1Cn2c(c(C(=O)NCc3ccccc3-c3ncccn3)n(-c3ccc(N4CC5(CN(C)C5)C4)cc3)c2=O)CN1C(=O)c1ccc(Br)c(C(F)(F)F)c1 (racemic) [Compound 78b, rac-(6S)-7-[4-bromo-3-(trifluoromethyl)benzoyl]-6-methyl-2-[4-(6-methyl-2,6-diazaspiro[3.3]heptan-2-yl)phenyl]-3-oxo-N-[(2-pyrimidin-2-ylphenyl)methyl]-6,8-dihydro-SH-imidazo[1,5-a]pyrazine-1-carboxamide] | 50 to 500 nM | 
7 | CN[C@H](C)COc1ccc(-n2c(C(=O)NCc3ccccc3-c3ncccn3)c3n(c2=O)C[C@H](C)N(C(=O)c2ccc(Br)c(C(F)(F)F)c2)C3)cc1 (racemic) [Compound 95b, rac-(6S)-7-[4-bromo-3-(trifluoromethyl)benzoyl]-6-methyl-2-[4-[2-(methylamino)propoxy]phenyl]-3-oxo-N-[(2-pyrimidin-2-ylphenyl)methyl]-6,8-dihydro-5H-imidazo[1,5-a]pyrazine-1-carboxamide] | 50 to 500 nM | 
8 | C[C@H](COc1ccc(-n2c(C(=O)NCc3ccccc3-c3ncccn3)c3n(c2=O)C[C@H](C)N(C(=O)c2ccc(Br)c(C(F)(F)F)c2)C3)cc1)N1CCOCC1 (racemic) [Compound 96b, rac-(6S)-7-[4-bromo-3-(trifluoromethyl)benzoyl]-6-methyl-2-[4-(2-morpholinopropoxy)phenyl]-3-oxo-N-[(2-pyrimidin-2-ylphenyl)methyl]-6,8-dihydro-5H-imidazo[1,5-a]pyrazine-1-carboxamide] | < 50 nM | 
9 | Cc1nnc(-c2ccccc2CNC(=O)c2c3n(c(=O)n2-c2ccc(OC4CC4)cc2)CC(C)N(C(=O)c2ccc(Br)c(Cl)c2)C3)o1 (single isomer, unassigned) [Compound 1a, (S*)-7-(4-bromo-3-chlorobenzoyl)-2-(4-cyclopropoxyphenyl)-6-methyl-N-(2-(5-methyl-1,3,4-oxadiazol-2-yl)benzyl)-3-oxo-2,3,5,6,7,8-hexahydroimidazo[1,5-a]pyrazine-1-carboxamide] | 50 to 500 nM | 
10 | Cc1nnc(-c2ccccc2CNC(=O)c2c3n(c(=O)n2-c2ccc(OC4CC4)cc2)CC(C)N(C(=O)c2ccc(Br)c(Cl)c2)C3)o1 (single isomer, unassigned) [Compound 1b, (6R*)-7-(4-bromo-3-chlorobenzoyl)-2-(4-cyclopropoxyphenyl)-6-methyl-N-(2-(5-methyl-1,3,4-oxadiazol-2-yl)benzyl)-3-oxo-2,3,5,6,7,8-hexahydroimidazo[1,5-a]pyrazine-1-carboxamide] |  | EC50 (read-out: EC50): < 50 nM
11 | CC1Cn2c(c(C(=O)NCc3c(F)cccc3-c3ccncn3)n(-c3ccc(OC4CC4)cc3)c2=O)CN1C(=O)c1ccc(Br)c(Cl)c1 (single isomer, unassigned) [Compound 2a, (S*)-7-(4-bromo-3-chlorobenzoyl)-2-(4-cyclopropoxyphenyl)-N-(2-fluoro-6-(pyrimidin-4-yl)benzyl)-6-methyl-3-oxo-2,3,5,6,7,8-hexahydroimidazo[1,5-a]pyrazine-1-carboxamide] | 50 to 500 nM | 
12 | CC1Cn2c(c(C(=O)NCc3c(F)cccc3-c3ccncn3)n(-c3ccc(OC4CC4)cc3)c2=O)CN1C(=O)c1ccc(Br)c(Cl)c1 (single isomer, unassigned) [Compound 2b, (R*)-7-(4-bromo-3-chlorobenzoyl)-2-(4-cyclopropoxyphenyl)-N-(2-fluoro-6-(pyrimidin-4-yl)benzyl)-6-methyl-3-oxo-2,3,5,6,7,8-hexahydroimidazo[1,5-a]pyrazine-1-carboxamide] |  | EC50 (read-out: EC50): < 50 nM
13 | CC1Cn2c(c(C(=O)NCc3ccccc3-c3ncccn3)n(-c3ccc(OC4CC4)cc3)c2=O)CN1C(=O)c1ccc(Br)c(Cl)c1 (single isomer, unassigned) [Compound 3a, (6S*)-7-(4-bromo-3-chloro-benzoyl)-2-[4-(cyclopropoxy)phenyl]-6-methyl-3-oxo-N-[(2-pyrimidin-2-ylphenyl)methyl]-6,8-dihydro-5H-imidazo[1,5-a]pyrazine-1-carboxamide] | < 50 nM | 
14 | CC1Cn2c(c(C(=O)NCc3ccccc3-c3ncccn3)n(-c3ccc(OC4CC4)cc3)c2=O)CN1C(=O)c1ccc(Br)c(Cl)c1 (single isomer, unassigned) [Compound 3b, (6R*)-7-(4-bromo-3-chloro-benzoyl)-2-[4-(cyclopropoxy)phenyl]-6-methyl-3-oxo-N-[(2-pyrimidin-2-ylphenyl)methyl]-6,8-dihydro-5H-imidazo[1,5-a]pyrazine-1-carboxamide] |  | EC50 (read-out: EC50): 50 to 500 nM
15 | CC1Cn2c(c(C(=O)NCc3ccccc3-c3ccncn3)n(-c3ccc(-n4cccn4)cc3)c2=O)CN1C(=O)c1ccc(Br)c(Cl)c1 (single isomer, unassigned) [Compound 4a, 7-(4-bromo-3-chloro-benzoyl)-6-methyl-3-oxo-2-(4-pyrazol-1-ylphenyl)-N-[(2-pyrimidin-4-ylphenyl)methyl]-6,8-dihydro-5H-imidazo[1,5-a]pyrazine-1-carboxamide] | 50 to 500 nM | 
16 | CC1Cn2c(c(C(=O)NCc3ccccc3-c3ccncn3)n(-c3ccc(-n4cccn4)cc3)c2=O)CN1C(=O)c1ccc(Br)c(Cl)c1 (single isomer, unassigned) [Compound 4b, 7-(4-bromo-3-chloro-benzoyl)-6-methyl-3-oxo-2-(4-pyrazol-1-ylphenyl)-N-[(2-pyrimidin-4-ylphenyl)methyl]-6,8-dihydro-5H-imidazo[1,5-a]pyrazine-1-carboxamide] |  | EC50 (listed as 4h): < 50 nM
